Source: ChEMBL document CHEMBL1201862, “PubChem BioAssay data set” (2004)
Active and inactive are the calls of the source.

What was measured:
[1] = Mycobacterium tuberculosis BioA enzyme inhibitor Measured in Biochemical System Using Plate Reader - 2163-02_Inhibitor_Dose_DryPowder_Activity.
[2] = A375 melanoma cell cytotoxicity, dose response, counter-screen for MITF inhibitor project, CellTiter-Glo luminescence, dry powder, set 7 (AID 624490); type: functional, cell-based; conditions: A-375
[3] = A375 melanoma cell cytotoxicity, dose response, counter-screen for MITF inhibitor project, CellTiter-Glo luminescence, dry powder, set 2 (AID 624489); type: functional, cell-based; conditions: A-375;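 note: actives are compounds lowering A375 viability meaning general cytotoxicity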
[4] = MITF Measured in Cell-Based System Using Plate Reader - 2084-01_Inhibitor_Dose_DryPowder_Activity_Set7.; type: functional
[5] = SK-MEL-5 parental cell viability reduction, dose response, orthogonal assay for MITF inhibitor project, CellTiter-Glo luminescence, dry powder, set 8 (AID 651586); type: functional, cell-based
[6] = SK-MEL-5 parental line viability, dose response, MITF inhibitor project, cell-based, CellTiter-Glo, dry powder, set 6 (AID 624429); type: functional
[7] = MALME3 melanoma cell viability reduction, dose response, orthogonal assay for MITF inhibitor project, CellTiter-Glo luminescence, dry powder, set 5 (AID 651584); type: functional, cell-based; conditions: MALME-3
[8] = MITF Orthogonal Assay: SK-MEL-5 CTG Assay Measured in Cell-Based System Using Plate Reader - 2084-02_Inhibitor_Dose_DryPowder_Activity_Set5.; type: functional
[9] = A375 melanoma cell cytotoxicity, dose response, counter-screen for MITF inhibitor project, CellTiter-Glo luminescence, dry powder, set 6 (AID 624488); type: functional, cell-based; conditions: A-375
[10] = MITF Measured in Cell-Based System Using Plate Reader - 2084-01_Inhibitor_Dose_DryPowder_Activity_Set6.; type: functional
[11] = TRPM1 promoter luciferase reporter signal decrease, dose response, MITF inhibitor project, cell-based, SK-MEL-5, dry powder, set 9 (AID 651588); type: functional
[12] = A375 melanoma cell viability loss, dose response, counter-screen for MITF inhibitor project, CellTiter-Glo luminescence, dry powder, set 4 (AID 624364); type: functional, cell-based; conditions: A-375;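 note: A375 melanoma cells are MITF independent so this is a counter screen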
[13] = A375 melanoma cell viability loss, dose response, counter-screen for MITF modulator project, CellTiter-Glo luminescence, dry powder, set 9 (AID 651591); type: functional, cell-based; conditions: A-375
[14] = MITF Orthogonal Assay: MALME3 CTG Assay Measured in Cell-Based System Using Plate Reader - 2084-04_Inhibitor_Dose_DryPowder_Activity_Set6.; type: functional; conditions: MALME-3
[15] = cytotoxicity in primary human melanocytes, dose response, cytotoxicity control, cell-based, plate reader, dry powder (AID 651920); type: functional
[16] = TRPM1 promoter luciferase reporter signal decrease, dose response, MITF inhibitor project, cell-based, SK-MEL-5, dry powder, set 8 (AID 624430); type: functional
[17] = MITF Orthogonal Assay: SK-MEL-5 CTG Assay Measured in Cell-Based System Using Plate Reader - 2084-02_Inhibitor_Dose_DryPowder_Activity_Set7.; type: functional
[18] = MITF: Counter assay: A375 proliferation Measured in Cell-Based System Using Plate Reader - 2084-03_Inhibitor_Dose_DryPowder_Activity_Set8.; type: functional; conditions: A-375
[19] = YAP1 pathway inhibition via CTGF transcript levels, dose response, cell-based, DLD1 colon cancer, RT-qPCR, cherry-pick (AID 1053122); type: functional; conditions: Cancer cell lines
[20] = P. falciparum Dd2 growth inhibitors, dose response, SYBR Green, cherry-picked samples (AID 1159567); type: functional, cell-based
[21] = P. falciparum ATP4 D1247Y mutant growth inhibitors, dose response, NITD609-resistant line, SYBR Green, dry powder (AID 1159571); type: functional, cell-based;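 note: parasites synchronized at ring stage by sorbitol before testing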
[22] = P. falciparum Dd2 growth inhibitors, dose response, SYBR Green, dry powder samples (AID 1159566); type: functional, cell-based;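 note: potency for growth inhibition with lower SYBR green DNA signal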
[23] = HepG2 cell cytotoxicity, dose response, cytotoxicity control, cherry-picked samples (AID 1159577); type: functional, cell-based
[24] = HepG2 cell cytotoxicity, dose response, cytotoxicity control, plate reader, dry powder samples (AID 1159569); type: functional, cell-based;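 note: inhibitor potency with signal falling toward the positive control level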
[25] = P. falciparum 3D7-ScDHODH growth inhibitors, dose response, SYBR Green, dry powder samples (AID 1159570); type: functional, cell-based;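 note: parasite growth measured after 72 hours of compound exposure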
[26] = Late stage assay provider results from the probe development effort to identify selective inhibitors of heat shock protein 90 (HSP90): Absorbance-based cell proliferation assay in MCF7 cells.; type: functional
[27] = Late stage assay provider results from the probe development effort to identify selective inhibitors of heat shock protein 90 (HSP90): Absorbance-based cell proliferation assay in SKBR3 cells.; type: functional; conditions: SK-BR-3
[28] = P. falciparum Dd2 growth inhibitors, dose response, SYBR Green, dry powder samples, set 9 (AID 1159568); type: functional, cell-based
[29] = cytotoxicity in HEK293 cells, dose response, cytotoxicity control, cell-based, cherry-picked samples (AID 1053185); type: functional
[30] = Artemis endonuclease inhibitor potency, dose response, biochemical, fluorescence intensity (AID 720701); type: functional;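 note: Artemis endonuclease enzyme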
[31] = Late stage assay provider results from the probe development effort to identify inhibitors of the Plasmodium falciparum M18 Aspartyl Aminopeptidase (M18AAP): radiolabel-based cell-based dose response assay to identify compounds that inhibit P. falciparum growth in RBCs, Set 2..; type: functional

O=C(Nc1cccnc1)N1CCN(c2ccccc2)CC1
AC50 [1]: 13 µM (active)

CN1CCN(C2=C(NS(=O)(=O)c3ccc(Br)s3)C(=O)c3ccccc3C2=O)CC1
AC50 [2]: > 70 µM (inactive) | AC50 [3]: 47.4 µM (active) | AC50 [4]: 2.26 µM (active) | AC50 [5]: 36.8 µM (active) | AC50 [6]: 64.7 µM (active) | AC50 [7]: 12 µM (active) | AC50 [8]: 11.2 µM (active) | AC50 [9]: 26.3 µM (active) | AC50 [10]: 1.94 µM (active) | AC50 [11]: 8.02 µM (active) | AC50 [12]: 65 µM (active) | AC50 [13]: > 70 µM (inactive) | AC50 [14]: 12 µM (active)

Cc1ccc(NC2=CC(=O)c3ccccc3C2=O)cc1
AC50 [5]: 36.1 µM (active) | AC50 [15]: > 70 µM (inactive) | AC50 [7]: 13.5 µM (active) | AC50 [16]: 6.58 µM (active) | AC50 [17]: 1.24 µM (active) | AC50 [18]: > 70 µM (inactive) | AC50 [13]: > 70 µM (inactive) | AC50 [14]: 13.5 µM (active)

C[C@@H]1CN([C@H](C)CO)C(=O)c2c(c3ccccc3n2C)-c2ccccc2CO[C@@H]1CN(C)Cc1cccc(C(F)(F)F)c1
AC50 [19]: 14.3 µM (active) | AC50 [20]: 1.87 µM (active) | AC50 [21]: 2.09 µM (active) | AC50 [22]: 1.28 µM (active) | AC50 [23]: 27.2 µM (active) | AC50 [24]: 19.6 µM (active) | AC50 [25]: 3.38 µM (active)

O=c1oc2ccc(OCCc3ccc(F)cc3)cc2cc1Br
IC50 [26]: > 100 µM (inactive) | IC50 [27]: 91.7 µM (inactive)

C[C@H](CO)N1C[C@H](C)[C@@H](CN(C)Cc2ccccc2)Oc2c(NC(=O)Cc3cn(C)c4ccccc34)cccc2C1=O
AC50 [28]: 1.97 µM (active) | AC50 [29]: 40.1 µM (active)

COc1ccc(/C=N/NC(=O)c2nc(-c3ccccc3)cc(-c3ccccc3)n2)cc1
IC50 [30]: > 20 µM (inactive)

COc1ccc(CCNc2ccnc3cc(Cl)ccc23)cc1OC
IC50 [31]: 0.66 µM (active)
